Here are results for 3 molecules from patent US20220202824A1, “Methods for Treating Centronuclear Myopathy” (Stemline Therapeutics, Inc., priority 2018, published 2022).

Like-named read-outs stand apart in the source and are kept apart here.

One assay deals with PIK3C2B (Homo sapiens, UniProt O00750). As to conditions: cited from earlier work; for IC50: read-out: IC50 for PIK3C2B.
The next assay concerns the target PI3Kβ (Homo sapiens, UniProt P42338). Conditions: literature value; read-out: IC50 for other PI3Ks: PI3Kβ; cited from earlier work.
The target of the next assay is PIK3C2A (PI3K-C2 alpha) (Homo sapiens, UniProt O00443). Description: SelectScreen Adapta universal kinase assay, PIK3C2A. Format: biochemical. As to conditions: [ATP] 10 uM; for inhibition at 0.00101 µM / inhibition at 0.00303 µM / inhibition at 0.0091 µM / inhibition at 0.0273 µM / inhibition at 0.082 µM / inhibition at 0.247 µM / inhibition at 0.741 µM / inhibition at 2.222 µM / inhibition at 6.667 µM / inhibition at 20 µM: PIK3C2A; for inhibition at 0.00101 µM: Test Compound 1.01 nM; for inhibition at 0.00303 µM: Test Compound 3.03 nM; for inhibition at 0.0091 µM: Test Compound 9.1 nM; for inhibition at 0.0273 µM: Test Compound 27.3 nM; for inhibition at 0.082 µM: Test Compound 82 nM; for inhibition at 0.247 µM: Test Compound 247 nM; for inhibition at 0.741 µM: Test Compound 741 nM; for inhibition at 2.222 µM: Test Compound 2222 nM; for inhibition at 6.667 µM: Test Compound 6667 nM; for inhibition at 20 µM: Test Compound 20000 nM. The method, then:
(§1) Kinase activities of PIK3C2B (and PIK3C2A for comparison) were obtained using the SelectScreen™ Profiling Service (Invitrogen) based on Adapta™ universal kinase assay protocol and conditions (Invitrogen Corporation, Cat. No. PV5099).
(§2) Adapta™ universal kinase assay: The assay itself can be divided into two phases: a kinase reaction phase, and an ADP detection phase. In the kinase reaction phase, all components required for the kinase reaction are added to the well, and the reaction is allowed to incubate for 60 minutes. After the reaction, a detection solution consisting of a europium labeled anti-ADP antibody, an Alexa Fluor™ 647 labeled ADP tracer, and EDTA (to stop the kinase reaction) is added to the assay well. ADP formed by the kinase reaction (in the absence of an inhibitor) displaces the Alexa Fluor® 647 labeled ADP tracer from the antibody, resulting in a decrease in the TR-FRET signal. In the presence of an inhibitor, the amount of ADP formed by the kinase reaction is reduced, and the resulting intact antibody-tracer interaction results in a high TR-FRET signal. ADP formation is determined by calculating the emission ratio from the assay well.
(§3) The emission ratio is calculated by dividing the intensity of the tracer (acceptor) emission by the intensity of the Eu (donor) emission at 615 nm as shown in the equation below. Emission Ratio=AlexaFluor™647 Emission (665 nm)/Europium Emission (615 nm).
(§4) The Test Compound was screened in 1% DMSO (final solution). For 10-point titrations, 3-fold serial dilutions were conducted from the starting concentrations of 20,000 nM for PIK3C2A and 1,000 nM for PIK3C2B.
For PIK3C2A (PI3K-C2 alpha), the 2×PIK3C2A (PI3K-C2 alpha)/PI mixture was prepared in a Kinase Buffer including […] pH 7.5, 200 mM NaCl, 0.06% CHAPS, 6 mM MgCl2, 2 mM EGTA. The final 10 μL Kinase Reaction has 8 ng PIK3C2A (PI3K-C2 alpha) and 100 μM PI in 57.5 mM HEPES pH 7.5, 100 mM NaCl, 0.03% CHAPS, 3 mM MgCl2, 1 mM EGTA. After the 1 hour Kinase Reaction incubation, 5 μL of Detection Mix was added.
(§5) All ATP Solutions were diluted to a 4× working concentration in water. ATP Km (apparent) was previously determined using a radiometric assay except when no substrate is available in which case an Adapta™ assay was conducted.
(§6) The Detection Mix was prepared in TR-FRET Dilution Buffer. The Detection mix consists of EDTA (30 mM), Eu-anti-ADP antibody (30 nM) and ADP tracer. The detection mix contains the EC60 concentration of tracer for 5-100 μM ATP.
(§7) Adapta™ assay protocol: 2.5 μL 4× Test Compound or 100 nL 100× plus 2.4 μL kinase buffer was dispensed onto white 384-well small volume polystyrene plate (Corning, Cat. No. 3674). Then 2.5 μL of 4×ATP Solution followed by 5 μL of 2× Substrate/Kinase Mixture were added. The final 10 μL Kinase Reaction has 8 ng PIK3C2B (PI3K-C2 beta) and 100 μM PI in 57.5 mM HEPES pH 7.5, 100 mM NaCl, 0.03% CHAPS, 3 mM MgCl2, 1 mM EGTA After 30 seconds plate shake and 2-minutes centrifugation at 1000×g for 2 minutes, Kinase Reaction incubation was performed at room temperature for 60 minutes.
(§8) After the Kinase Reaction incubation, 5 μL of Detection Mix was added. After 30 seconds plate shake and 2-minutes centrifugation at 1000×g for 2 minutes, Detection Mix equilibration incubation was performed at room temperature for 60 minutes.
(§9) Adapta™ data analysis: The fluorescent data obtained was analyzed using a data fitting program, XLfit (ID Business Solutions, Guildford, UK). IC50 values were derived by fitting a sigmoidal dose-response curve to a plot of assay readout over inhibitor concentration.

The test system of another assay is 395 kinases. Description: KINOMEscan competitive binding profiling assay of 395 kinases (Ambit Biosciences). As to conditions: single concentration 10 μM. The source says:
Initially, 3-{[(3S)-4-(6,6-dimethyl-4-oxo-4,5,6,7-tetrahydro[1,3]thiazolo[5,4-c]pyridin-2-yl)morpholin-3-yl]methyl}-N,N,1-trimethyl-1H-indole-5-carboxamide (referred as Test Compound here in Example 2) was screened against kinase targets representing diverse protein kinase family members for competitive binding using a commercially available profiling assay of 395 kinases (Ambit Biosciences, KINOMEscan), and the compound was found most likely to inhibit the kinase activity of PI3Ks compared to other kinases.

The target in the next assay is PIK3C2B (PI3K-C2 beta) (Homo sapiens, UniProt O00750). As to the kind of experiment: SelectScreen Adapta universal kinase assay, PIK3C2B. Format: biochemical. Conditions: for inhibition at 51 pM / inhibition at 0.000153 µM / inhibition at 0.00046 µM / inhibition at 0.00137 µM / inhibition at 0.0041 µM / inhibition at 0.0123 µM / inhibition at 0.037 µM / inhibition at 0.111 µM / inhibition at 0.333 µM / inhibition at 1 µM: PIK3C2B; for inhibition at 51 pM: Test Compound 0.051 nM; for inhibition at 0.000153 µM: Test Compound 0.153 nM; for inhibition at 0.00046 µM: Test Compound 0.46 nM; for inhibition at 0.00137 µM: Test Compound 1.37 nM; for inhibition at 0.0041 µM: Test Compound 4.1 nM; for inhibition at 0.0123 µM: Test Compound 12.3 nM; for inhibition at 0.037 µM: Test Compound 37 nM; for inhibition at 0.111 µM: Test Compound 111 nM; for inhibition at 0.333 µM: Test Compound 333 nM; for inhibition at 1 µM: Test Compound 1000 nM. The method, then:
as §1, §2, §3, §4
For PIK3C2B (PI3K-C2 beta), the 2×PIK3C2B (PI3K-C2 beta)/PI mixture was prepared in 100 mM HEPES pH 7.5, 200 mM NaCl, 0.06% CHAPS, 6 mM MgCl2, 2 mM EGTA. The final 10 μL Kinase Reaction has 8 ng PIK3C2B (PI3K-C2 beta) and 100 μM PI in 57.5 mM HEPES pH 7.5, 100 mM NaCl, 0.03% CHAPS, 3 mM MgCl2, 1 mM EGTA. After the 1 hour Kinase Reaction incubation, 5 μL of Detection Mix was added.
as §5, §6, §7, §8, §9

Where [1] appears, read: [ATP] 10 uM, read-out: % Inhibition point 1.
The mark [2] stands for this setting: [ATP] 10 uM, read-out: % Inhibition point 2.

Chain of PIK3C2B (PI3K-C2 beta) (O00750 whole entry): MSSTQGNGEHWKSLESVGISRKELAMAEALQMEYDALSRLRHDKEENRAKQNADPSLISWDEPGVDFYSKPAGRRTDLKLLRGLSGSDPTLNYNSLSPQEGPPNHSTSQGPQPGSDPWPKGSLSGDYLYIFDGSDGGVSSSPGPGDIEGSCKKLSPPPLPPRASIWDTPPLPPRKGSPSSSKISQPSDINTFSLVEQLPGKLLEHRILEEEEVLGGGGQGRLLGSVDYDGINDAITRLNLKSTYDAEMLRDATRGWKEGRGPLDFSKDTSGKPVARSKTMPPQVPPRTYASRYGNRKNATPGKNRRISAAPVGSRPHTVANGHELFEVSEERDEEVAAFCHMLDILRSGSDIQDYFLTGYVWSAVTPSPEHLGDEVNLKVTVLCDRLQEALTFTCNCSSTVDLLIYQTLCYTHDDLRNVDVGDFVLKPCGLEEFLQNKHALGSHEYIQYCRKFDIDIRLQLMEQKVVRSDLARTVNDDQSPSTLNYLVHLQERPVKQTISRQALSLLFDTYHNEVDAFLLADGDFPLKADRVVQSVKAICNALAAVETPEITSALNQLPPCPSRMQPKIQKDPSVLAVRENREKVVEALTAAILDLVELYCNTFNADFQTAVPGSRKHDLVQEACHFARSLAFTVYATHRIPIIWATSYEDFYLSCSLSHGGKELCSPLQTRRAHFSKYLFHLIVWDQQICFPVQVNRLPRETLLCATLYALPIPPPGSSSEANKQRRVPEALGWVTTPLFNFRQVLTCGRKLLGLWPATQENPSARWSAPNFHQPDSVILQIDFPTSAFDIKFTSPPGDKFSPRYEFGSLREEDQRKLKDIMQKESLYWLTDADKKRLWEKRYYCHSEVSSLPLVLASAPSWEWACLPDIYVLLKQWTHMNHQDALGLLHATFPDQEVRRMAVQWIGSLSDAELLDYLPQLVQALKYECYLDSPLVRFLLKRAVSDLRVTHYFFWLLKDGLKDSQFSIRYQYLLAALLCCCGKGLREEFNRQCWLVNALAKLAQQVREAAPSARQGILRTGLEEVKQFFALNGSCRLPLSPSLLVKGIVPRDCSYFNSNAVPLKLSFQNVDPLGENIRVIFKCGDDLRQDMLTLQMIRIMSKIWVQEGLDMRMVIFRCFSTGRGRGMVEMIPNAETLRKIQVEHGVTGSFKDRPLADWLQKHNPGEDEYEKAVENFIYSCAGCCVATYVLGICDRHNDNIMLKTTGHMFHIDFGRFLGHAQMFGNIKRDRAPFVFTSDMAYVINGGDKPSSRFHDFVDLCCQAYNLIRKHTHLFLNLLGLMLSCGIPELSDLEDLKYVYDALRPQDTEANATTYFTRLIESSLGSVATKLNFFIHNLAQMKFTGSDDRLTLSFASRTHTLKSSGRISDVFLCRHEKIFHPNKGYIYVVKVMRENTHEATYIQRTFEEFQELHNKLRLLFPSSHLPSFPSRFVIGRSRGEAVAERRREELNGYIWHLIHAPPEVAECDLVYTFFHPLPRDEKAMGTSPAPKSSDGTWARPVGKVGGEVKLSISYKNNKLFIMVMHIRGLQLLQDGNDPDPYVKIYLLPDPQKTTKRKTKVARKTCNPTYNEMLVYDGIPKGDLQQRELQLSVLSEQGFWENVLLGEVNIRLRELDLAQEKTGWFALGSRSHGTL
Chain of PIK3C2B (O00750 whole entry): as above
Chain of PIK3C2A (PI3K-C2 alpha) (O00443 whole entry): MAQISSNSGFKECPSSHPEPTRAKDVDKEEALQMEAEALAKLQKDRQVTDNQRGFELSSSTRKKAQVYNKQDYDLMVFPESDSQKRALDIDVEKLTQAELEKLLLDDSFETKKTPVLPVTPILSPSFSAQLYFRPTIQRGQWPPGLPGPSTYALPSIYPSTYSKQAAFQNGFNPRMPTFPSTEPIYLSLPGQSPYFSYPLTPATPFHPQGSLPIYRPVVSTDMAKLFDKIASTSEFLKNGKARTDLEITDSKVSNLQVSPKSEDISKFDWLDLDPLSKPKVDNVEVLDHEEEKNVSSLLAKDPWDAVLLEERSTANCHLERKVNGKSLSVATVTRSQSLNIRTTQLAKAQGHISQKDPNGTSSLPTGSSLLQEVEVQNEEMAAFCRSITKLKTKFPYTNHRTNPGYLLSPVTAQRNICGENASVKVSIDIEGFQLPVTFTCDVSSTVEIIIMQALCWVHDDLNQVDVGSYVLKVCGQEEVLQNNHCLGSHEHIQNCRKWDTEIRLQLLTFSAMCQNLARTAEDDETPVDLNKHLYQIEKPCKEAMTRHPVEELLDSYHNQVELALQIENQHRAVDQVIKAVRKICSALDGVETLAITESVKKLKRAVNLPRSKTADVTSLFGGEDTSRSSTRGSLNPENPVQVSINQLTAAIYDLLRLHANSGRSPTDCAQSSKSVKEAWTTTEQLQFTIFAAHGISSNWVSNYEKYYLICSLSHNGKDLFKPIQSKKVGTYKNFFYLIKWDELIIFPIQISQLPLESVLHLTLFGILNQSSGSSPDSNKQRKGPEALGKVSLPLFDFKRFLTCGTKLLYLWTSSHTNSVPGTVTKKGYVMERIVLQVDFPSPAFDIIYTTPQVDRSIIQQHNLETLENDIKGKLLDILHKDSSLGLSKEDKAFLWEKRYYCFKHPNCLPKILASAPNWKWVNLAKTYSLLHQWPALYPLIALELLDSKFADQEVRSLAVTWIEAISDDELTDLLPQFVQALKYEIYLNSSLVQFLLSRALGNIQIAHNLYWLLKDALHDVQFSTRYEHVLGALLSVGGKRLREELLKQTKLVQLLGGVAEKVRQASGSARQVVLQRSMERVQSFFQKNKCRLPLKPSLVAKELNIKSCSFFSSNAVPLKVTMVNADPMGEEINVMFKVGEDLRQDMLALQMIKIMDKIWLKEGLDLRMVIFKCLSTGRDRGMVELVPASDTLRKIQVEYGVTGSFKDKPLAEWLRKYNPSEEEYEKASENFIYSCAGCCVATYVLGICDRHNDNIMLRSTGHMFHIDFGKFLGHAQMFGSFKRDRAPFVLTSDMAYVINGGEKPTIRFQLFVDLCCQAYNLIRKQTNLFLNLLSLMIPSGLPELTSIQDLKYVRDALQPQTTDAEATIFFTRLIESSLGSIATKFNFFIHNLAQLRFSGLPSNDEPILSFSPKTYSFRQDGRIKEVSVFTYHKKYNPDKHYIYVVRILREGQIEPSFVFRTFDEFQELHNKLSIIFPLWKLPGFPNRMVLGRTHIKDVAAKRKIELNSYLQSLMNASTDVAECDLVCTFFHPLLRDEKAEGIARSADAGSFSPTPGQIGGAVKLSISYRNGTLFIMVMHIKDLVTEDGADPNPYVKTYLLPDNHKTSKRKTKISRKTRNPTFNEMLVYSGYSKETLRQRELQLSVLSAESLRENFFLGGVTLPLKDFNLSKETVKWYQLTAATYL

Broadly, the IC50 is the concentration that inhibits the measured activity by half. For `CC[C@H](Nc1ncnc2[nH]cnc12)c1nc2cccc(F)c2c(=O)n1-c1ccccc1`, at PIK3C2B, the IC50 was 1000 nM.
In the case of `Cc1c(Cn2c(C)nc(=O)c3sc(N4CCOCC4)nc32)cccc1C(F)(F)F`, the IC50 on PI3Kβ is 6 nM; on PIK3C2B (literature value), 1000 nM. The “selectivity in favor of PI3Kβ (Class I)” value on PIK3C2B (PI3Kβ over PIK3C2B) was 166-fold selectivity in favor of PI3Kβ (Class I) (Lin et al. ACS Med. Chem. Lett. 2012, 3, 524-529).
As usually defined, the inhibition is the drop in the measured response relative to a control, in per cent. On to `CN(C)C(=O)c1ccc2c(c1)c(C[C@H]1COCCN1c1nc3c(s1)C(=O)NC(C)(C)C3)cn2C` [Test Compound, 3-{[(3S)-4-(6,6-dimethyl-4-oxo-4,5,6,7-tetrahydro[1,3]thiazolo[5,4-c]pyridin-2-yl)morpholin-3-yl]methyl}-N,N,1-trimethyl-1H-indole-5-carboxamide], for which, on PIK3C2A (PI3K-C2 alpha) (read-out: % Inhibition point 1), the inhibition at 0.00101 µM is 25%, the inhibition at 0.00303 µM was -24%, the inhibition at 0.0091 µM is -3% and the inhibition at 0.0273 µM turned out to be 13%. Also, on PIK3C2A (PI3K-C2 alpha) (read-out: % Inhibition point 1), the inhibition at 0.082 µM worked out at 0%, the inhibition at 0.247 µM was 15%, the inhibition at 0.741 µM was found to be 17% and the inhibition at 2.222 µM was 46%. Besides, on PIK3C2A (PI3K-C2 alpha) (read-out: % Inhibition point 1), the inhibition at 6.667 µM turned out to be 55% and the inhibition at 20 µM came out at 81%. Further, at PIK3C2A (PI3K-C2 alpha) (read-out: % Inhibition point 2), the inhibition at 0.00101 µM is -12%, the inhibition at 0.00303 µM amounted to 3%, the inhibition at 0.0091 µM was found to be 16% and the inhibition at 0.0273 µM was -4%. Further, at PIK3C2A (PI3K-C2 alpha) (read-out: % Inhibition point 2), the inhibition at 0.082 µM came out at 11%, the inhibition at 0.247 µM came out at 6%, the inhibition at 0.741 µM was determined as 30% and the inhibition at 2.222 µM stood at 36%. Further, on PIK3C2A (PI3K-C2 alpha) (read-out: % Inhibition point 2), the inhibition at 6.667 µM was 46% and the inhibition at 20 µM was 78%. The same molecule yielded an IC50 at PIK3C2A (PI3K-C2 alpha) of 4300 nM. Also, in the assay on 395 kinases, the “hits in kinase binding screen” value is “no hits other than PI3Ks”. The “selectivity over C2A (Class II isoform)” value on PIK3C2B (PI3K-C2 beta) (PIK3C2B vs PIK3C2A IC50) was 449-fold selectivity over. In addition, on PIK3C2B (PI3K-C2 beta) (setting [1]), the inhibition at 51 pM was determined as 16%, the inhibition at 0.000153 µM was -3%, the inhibition at 0.00046 µM worked out at 10% and the inhibition at 0.00137 µM stood at 21%. Besides, on PIK3C2B (PI3K-C2 beta) (setting [1]), the inhibition at 0.0041 µM was 58%, the inhibition at 0.0123 µM worked out at 61%, the inhibition at 0.037 µM worked out at 74% and the inhibition at 0.111 µM worked out at 92%. Also, on PIK3C2B (PI3K-C2 beta) (setting [1]), the inhibition at 0.333 µM was 94% and the inhibition at 1 µM stood at 93%. Also, on PIK3C2B (PI3K-C2 beta) (setting [2]), the inhibition at 51 pM was found to be 17%, the inhibition at 0.000153 µM amounted to 8%, the inhibition at 0.00046 µM stood at 21% and the inhibition at 0.00137 µM worked out at 33%. Moreover, on PIK3C2B (PI3K-C2 beta) (setting [2]), the inhibition at 0.0041 µM was found to be 27%, the inhibition at 0.0123 µM was determined as 49%, the inhibition at 0.037 µM was determined as 82% and the inhibition at 0.111 µM turned out to be 90%. Also, at PIK3C2B (PI3K-C2 beta) (setting [2]), the inhibition at 0.333 µM was determined as 93% and the inhibition at 1 µM amounted to 95%. For the same molecule, inhibition on PIK3C2B (PI3K-C2 beta) ([ATP] 10 uM) was half-maximal at 9.57 nM (IC50).
